#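 In this assay, cells in 96-well plates receive the compound at five concentrations for 48 hours. Endpoints are linearly interpolated between the surrounding concentrations. GI50 marks 50% less growth. TGI denotes the concentration required for complete inhibition of growth.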
# Legend:
# Assay in all cases: NCI-60 cell line screen, 48 h
# 786-0 renal = system: 786-0 renal
# A498 renal = system: A498 renal
# A549 NSCLC = system: A549 NSCLC
# ACHN renal = system: ACHN renal
# BT-549 breast = system: BT-549 breast
# CAKI-1 renal = system: CAKI-1 renal
# CCRF-CEM leukemia = system: CCRF-CEM leukemia
# COLO 205 colon = system: COLO 205 colon
# DU-145 prostate = system: DU-145 prostate
# EKVX NSCLC = system: EKVX NSCLC
# HCC-2998 colon = system: HCC-2998 colon
# HCT-116 colon = system: HCT-116 colon
# HCT-15 colon = system: HCT-15 colon
# HL-60(TB) leukemia = system: HL-60(TB) leukemia
# HOP-62 NSCLC = system: HOP-62 NSCLC
# HOP-92 NSCLC = system: HOP-92 NSCLC
# HS 578T breast = system: HS 578T breast
# HT29 colon = system: HT29 colon
# IGROV1 ovarian = system: IGROV1 ovarian
# K-562 leukemia = system: K-562 leukemia
# KM12 colon = system: KM12 colon
# LOX IMVI melanoma = system: LOX IMVI melanoma
# M14 melanoma = system: M14 melanoma
# MALME-3M melanoma = system: MALME-3M melanoma
# MCF7 breast = system: MCF7 breast
# MDA-MB-231 breast = system: MDA-MB-231 breast
# MDA-MB-435 = system: MDA-MB-435
# MDA-MB-468 breast = system: MDA-MB-468 breast
# MOLT-4 leukemia = system: MOLT-4 leukemia
# NCI-H226 lung = system: NCI-H226 lung
# NCI-H23 lung = system: NCI-H23 lung
# NCI-H460 lung = system: NCI-H460 lung
# NCI-H522 lung = system: NCI-H522 lung
# OVCAR-3 ovarian = system: OVCAR-3 ovarian
# OVCAR-4 ovarian = system: OVCAR-4 ovarian
# OVCAR-5 ovarian = system: OVCAR-5 ovarian
# OVCAR-8 ovarian = system: OVCAR-8 ovarian
# PC-3 prostate = system: PC-3 prostate
# RPMI-8226 leukemia = system: RPMI-8226 leukemia
# RXF 393 renal = system: RXF 393 renal
# SF-268 CNS = system: SF-268 CNS
# SF-295 CNS = system: SF-295 CNS
# SF-539 CNS = system: SF-539 CNS
# SK-MEL-2 melanoma = system: SK-MEL-2 melanoma
# SK-MEL-28 melanoma = system: SK-MEL-28 melanoma
# SK-MEL-5 melanoma = system: SK-MEL-5 melanoma
# SK-OV-3 ovarian = system: SK-OV-3 ovarian
# SN12C renal = system: SN12C renal
# SNB-19 CNS = system: SNB-19 CNS
# SNB-75 CNS = system: SNB-75 CNS
# SR leukemia = system: SR leukemia
# SW-620 colon = system: SW-620 colon
# T-47D breast = system: T-47D breast
# TK-10 renal = system: TK-10 renal
# U251 CNS = system: U251 CNS
# UACC-257 melanoma = system: UACC-257 melanoma
# UACC-62 melanoma = system: UACC-62 melanoma
# UO-31 renal = system: UO-31 renal
smiles,measurement,setting,value
COc1ccc([C@H]2C(C(=O)c3ccc(Cl)cc3)C3(N[C@@H]2c2ccccc2)C(=O)Nc2ccc(Br)cc23)cc1 (stereo partly specified),GI50,786-0 renal,12.4 µM
same,TGI,786-0 renal,32.3 µM
same,GI50,A498 renal,10.5 µM
same,TGI,A498 renal,24.8 µM
same,GI50,A549 NSCLC,11.9 µM
same,TGI,A549 NSCLC,34.2 µM
same,GI50,ACHN renal,13.4 µM
same,TGI,ACHN renal,41.6 µM
same,GI50,BT-549 breast,8.66 µM
same,TGI,BT-549 breast,16.6 µM
same,GI50,CAKI-1 renal,13.1 µM
same,TGI,CAKI-1 renal,42.4 µM
same,GI50,CCRF-CEM leukemia,14.4 µM
same,TGI,CCRF-CEM leukemia,40.5 µM
same,GI50,COLO 205 colon,8.35 µM
same,TGI,COLO 205 colon,16 µM
same,GI50,DU-145 prostate,13.5 µM
same,TGI,DU-145 prostate,36.7 µM
same,GI50,EKVX NSCLC,12.4 µM
same,TGI,EKVX NSCLC,42.6 µM
same,GI50,HCC-2998 colon,8.82 µM
same,TGI,HCC-2998 colon,17.9 µM
same,GI50,HCT-116 colon,9.7 µM
same,TGI,HCT-116 colon,18.5 µM
same,GI50,HCT-15 colon,9.91 µM
same,TGI,HCT-15 colon,20.3 µM
same,GI50,HL-60(TB) leukemia,11.3 µM
same,TGI,HL-60(TB) leukemia,29.8 µM
same,GI50,HOP-62 NSCLC,8.59 µM
same,TGI,HOP-62 NSCLC,16.5 µM
same,GI50,HOP-92 NSCLC,8.27 µM
same,TGI,HOP-92 NSCLC,19.7 µM
same,GI50,HS 578T breast,9.96 µM
same,TGI,HS 578T breast,26.6 µM
same,GI50,HT29 colon,9.03 µM
same,TGI,HT29 colon,17.1 µM
same,GI50,IGROV1 ovarian,11 µM
same,TGI,IGROV1 ovarian,25.9 µM
same,GI50,K-562 leukemia,15.8 µM
same,TGI,K-562 leukemia,> 53.3 µM
same,GI50,KM12 colon,11.5 µM
same,TGI,KM12 colon,25.5 µM
same,GI50,LOX IMVI melanoma,7.86 µM
same,TGI,LOX IMVI melanoma,15.9 µM
same,GI50,M14 melanoma,9.18 µM
same,TGI,M14 melanoma,19.1 µM
same,GI50,MALME-3M melanoma,7.69 µM
same,TGI,MALME-3M melanoma,15.1 µM
same,GI50,MCF7 breast,11.5 µM
same,TGI,MCF7 breast,34.9 µM
same,GI50,MDA-MB-231 breast,8.88 µM
same,TGI,MDA-MB-231 breast,16.5 µM
same,GI50,MDA-MB-435,10.2 µM
same,TGI,MDA-MB-435,20.4 µM
same,GI50,MDA-MB-468 breast,10.2 µM
same,TGI,MDA-MB-468 breast,27 µM
same,GI50,MOLT-4 leukemia,14.8 µM
same,TGI,MOLT-4 leukemia,47.2 µM
same,GI50,NCI-H226 lung,8.47 µM
same,TGI,NCI-H226 lung,16.4 µM
same,GI50,NCI-H23 lung,10.2 µM
same,TGI,NCI-H23 lung,20.8 µM
same,GI50,NCI-H460 lung,10.1 µM
same,TGI,NCI-H460 lung,20.9 µM
same,GI50,NCI-H522 lung,8.97 µM
same,TGI,NCI-H522 lung,20.8 µM
same,GI50,OVCAR-3 ovarian,10.5 µM
same,TGI,OVCAR-3 ovarian,23.3 µM
same,GI50,OVCAR-4 ovarian,13 µM
same,TGI,OVCAR-4 ovarian,42.4 µM
same,GI50,OVCAR-5 ovarian,9.8 µM
same,TGI,OVCAR-5 ovarian,19.1 µM
same,GI50,OVCAR-8 ovarian,9.68 µM
same,TGI,OVCAR-8 ovarian,20.4 µM
same,GI50,PC-3 prostate,12.2 µM
same,TGI,PC-3 prostate,31.5 µM
same,GI50,RPMI-8226 leukemia,14.3 µM
same,TGI,RPMI-8226 leukemia,41 µM
same,GI50,RXF 393 renal,7.29 µM
same,TGI,RXF 393 renal,16.2 µM
same,GI50,SF-268 CNS,14.4 µM
same,TGI,SF-268 CNS,49.7 µM
same,GI50,SF-295 CNS,9.65 µM
same,TGI,SF-295 CNS,20.2 µM
same,GI50,SF-539 CNS,9.47 µM
same,TGI,SF-539 CNS,19.4 µM
same,GI50,SK-MEL-2 melanoma,8.37 µM
same,TGI,SK-MEL-2 melanoma,16 µM
same,GI50,SK-MEL-28 melanoma,8.83 µM
same,TGI,SK-MEL-28 melanoma,16.8 µM
same,GI50,SK-MEL-5 melanoma,8.65 µM
same,TGI,SK-MEL-5 melanoma,16.5 µM
same,GI50,SK-OV-3 ovarian,12.3 µM
same,TGI,SK-OV-3 ovarian,36.8 µM
same,GI50,SN12C renal,8.53 µM
same,TGI,SN12C renal,16 µM
same,GI50,SNB-19 CNS,15.1 µM
same,TGI,SNB-19 CNS,> 53.3 µM
same,GI50,SNB-75 CNS,8.73 µM
same,TGI,SNB-75 CNS,35.4 µM
same,GI50,SR leukemia,12.8 µM
same,TGI,SR leukemia,35.8 µM
same,GI50,SW-620 colon,13.9 µM
same,TGI,SW-620 colon,44.8 µM
same,GI50,T-47D breast,11.5 µM
same,TGI,T-47D breast,33.4 µM
same,GI50,TK-10 renal,10.8 µM
same,TGI,TK-10 renal,28.7 µM
same,GI50,U251 CNS,9.18 µM
same,TGI,U251 CNS,18 µM
same,GI50,UACC-257 melanoma,10.5 µM
same,TGI,UACC-257 melanoma,27.9 µM
same,GI50,UACC-62 melanoma,8.75 µM
same,TGI,UACC-62 melanoma,16.7 µM
same,GI50,UO-31 renal,10.7 µM
same,TGI,UO-31 renal,29.3 µM

# Source: PubChem BioAssay (NCI)
